Experimental data from publication PMC7115586 (European Journal of Medicinal Chemistry, 2013).

Tests used:
[1] = test system: a wide variety of DNA and RNA viruses; assay: All biological tests; format: cell-based; conditions: antiviral and cytostatic tests
[2] = Solubility in methanol or water; format: physicochemical; conditions: insufficient to measure the 13C NMR spectrum
[3] = test system: feline herpes virus (FHV); format: cell-based; conditions: CRFK, read-out: EC50 against feline herpes virus

Row | Compound | solubility in methanol or water [2] | also measured
1 | 3-(4-{[3-Benzoyl-2,4-dioxopyrimidin-1-yl]methyl}-1H-1,2,3-triazol-1-yl)propylphosphonic acid [Compound 31e] | – | activity in all biological tests [1]: inactive
2 | 4-(4-{[6-Aminopurin-9-yl]methyl}-1H-1,2,3-triazol-1-yl)butylphosphonic acid [Compound 32b] | insufficient | –
3 | CCOP(=O)(CCCn1cc(Cn2ccc(=O)n(C(=O)c3ccccc3)c2=O)nn1)OCC [Compound 22m, Diethyl 3-(4-{[3-benzoyl-2,4-dioxopyrimidin-1-yl]methyl}-1H-1,2,3-triazol-1-yl)propylphosphonate] | – | EC50 [3]: > 200 µM
4 | Cn1c(=O)c2c(nc(Cl)n2Cc2cn(CCCP(=O)(O)O)nn2)n(C)c1=O [Compound 31g, 3-{4-[(8-Chloro-1,3-dimethyl-2,6-dioxopurin-7-yl)methyl]-1H-1,2,3-triazol-1-yl}propylphosphonic acid] | insufficient | –
5 | Cc1cc2ncn(Cc3cn(CCCP(=O)(O)O)nn3)c2cc1C [Compound 31j, 3-{4-[(5,6-Dimethyl-benzimidazol-1-yl)methyl]-1H-1,2,3-triazol-1-yl}propylphosphonic acid] | – | activity in all biological tests [1]: inactive

More lines, main results first:

Row | solubility in methanol or water [2] | Compound | also measured
6 | insufficient | Nc1ncnc2c1ncn2Cc1cn(CCCCP(=O)(O)O)nn1 [Compound 32a, 4-(4-{[6-Aminopurin-9-yl]methyl}-1H-1,2,3-triazol-1-yl)butylphosphonic acid] | –
7 | insufficient | Cn1c(=O)c2c(ncn2Cc2cn(CC(O)P(=O)(O)O)nn2)n(C)c1=O (stereo not shown) [Compound 33i, 3-{4-[(1,3-Dimethyl-2,6-dioxopurin-7-yl)methyl]-1H-1,2,3-triazol-1-yl}-1-hydroxyethyphosphonic acid] | –
